Values of other authors, collected in paper PMC4303313 (Biochemistry, 2014).

What was measured:
reduced RfBP = target: T1, reduced RfBP (Gallus gallus, UniProt P02752); conditions: no GSH
T1 sequence (P02752 18-238): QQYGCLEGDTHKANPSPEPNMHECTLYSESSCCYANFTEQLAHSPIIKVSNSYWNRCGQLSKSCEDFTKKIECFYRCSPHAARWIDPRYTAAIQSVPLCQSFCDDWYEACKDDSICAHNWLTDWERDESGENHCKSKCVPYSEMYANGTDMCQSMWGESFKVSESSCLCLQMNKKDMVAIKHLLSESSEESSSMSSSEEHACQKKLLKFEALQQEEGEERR

reduced RNase = target: T2, reduced RNase (Bos taurus, UniProt P61823)
T2 sequence (P61823 27-150): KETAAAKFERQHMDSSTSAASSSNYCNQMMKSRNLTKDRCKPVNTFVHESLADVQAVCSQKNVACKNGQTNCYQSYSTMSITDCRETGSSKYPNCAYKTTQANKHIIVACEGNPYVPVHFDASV

Compound: C[As](O)O [MMA]
- effect on ability of reoxidized RfBP to rebind riboflavin (reduced RfBP): profoundly attenuated
- formation of filamentous deposits from reduced RNase (reduced RNase; no GSH): led to the formation of filamentous deposits
- formation of aggregates from reduced RNase (reduced RNase; reduced RNase and GSH): do not appear
